Data reported in ChEMBL document CHEMBL1201862, “PubChem BioAssay data set” (2004).
Values belong to the compound of their own block, whether it stands above or below them. Activity calls are given as the source filed them.

How the values were obtained:
[1] = biological target: Dual specificity protein kinase CLK4 (Homo sapiens, UniProt Q9HAZ1); format: functional
Caspase-9 = Caspase-9 (Homo sapiens, UniProt P55211); test: inhibitors of purified CASP9 protease – biochemical, fluorescence, plate reader, cherry-picked samples, selectivity assay for caspase-6 inhibitor project, dose response (AID 743293)
Caspase-3 = biological target: T1, Caspase-3 (Homo sapiens, UniProt P42574); format: functional;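 also: Dose-response selectivity test against caspase-3 for candidate inhibitors of sentrin-specific proteases (SENPs)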
T1 sequence (P42574 whole entry): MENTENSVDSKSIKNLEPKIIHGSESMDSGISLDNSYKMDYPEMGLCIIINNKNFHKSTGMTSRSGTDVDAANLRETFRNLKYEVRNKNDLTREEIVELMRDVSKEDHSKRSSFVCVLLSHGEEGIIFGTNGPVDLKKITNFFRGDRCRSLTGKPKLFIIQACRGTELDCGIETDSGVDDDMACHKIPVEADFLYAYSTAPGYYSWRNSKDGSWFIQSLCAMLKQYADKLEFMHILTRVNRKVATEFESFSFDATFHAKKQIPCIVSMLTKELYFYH

[2] = biological target: T2, Histone-lysine N-methyltransferase NSD2 (Homo sapiens, UniProt O96028); format: biochemical
T2 sequence (O96028 whole entry): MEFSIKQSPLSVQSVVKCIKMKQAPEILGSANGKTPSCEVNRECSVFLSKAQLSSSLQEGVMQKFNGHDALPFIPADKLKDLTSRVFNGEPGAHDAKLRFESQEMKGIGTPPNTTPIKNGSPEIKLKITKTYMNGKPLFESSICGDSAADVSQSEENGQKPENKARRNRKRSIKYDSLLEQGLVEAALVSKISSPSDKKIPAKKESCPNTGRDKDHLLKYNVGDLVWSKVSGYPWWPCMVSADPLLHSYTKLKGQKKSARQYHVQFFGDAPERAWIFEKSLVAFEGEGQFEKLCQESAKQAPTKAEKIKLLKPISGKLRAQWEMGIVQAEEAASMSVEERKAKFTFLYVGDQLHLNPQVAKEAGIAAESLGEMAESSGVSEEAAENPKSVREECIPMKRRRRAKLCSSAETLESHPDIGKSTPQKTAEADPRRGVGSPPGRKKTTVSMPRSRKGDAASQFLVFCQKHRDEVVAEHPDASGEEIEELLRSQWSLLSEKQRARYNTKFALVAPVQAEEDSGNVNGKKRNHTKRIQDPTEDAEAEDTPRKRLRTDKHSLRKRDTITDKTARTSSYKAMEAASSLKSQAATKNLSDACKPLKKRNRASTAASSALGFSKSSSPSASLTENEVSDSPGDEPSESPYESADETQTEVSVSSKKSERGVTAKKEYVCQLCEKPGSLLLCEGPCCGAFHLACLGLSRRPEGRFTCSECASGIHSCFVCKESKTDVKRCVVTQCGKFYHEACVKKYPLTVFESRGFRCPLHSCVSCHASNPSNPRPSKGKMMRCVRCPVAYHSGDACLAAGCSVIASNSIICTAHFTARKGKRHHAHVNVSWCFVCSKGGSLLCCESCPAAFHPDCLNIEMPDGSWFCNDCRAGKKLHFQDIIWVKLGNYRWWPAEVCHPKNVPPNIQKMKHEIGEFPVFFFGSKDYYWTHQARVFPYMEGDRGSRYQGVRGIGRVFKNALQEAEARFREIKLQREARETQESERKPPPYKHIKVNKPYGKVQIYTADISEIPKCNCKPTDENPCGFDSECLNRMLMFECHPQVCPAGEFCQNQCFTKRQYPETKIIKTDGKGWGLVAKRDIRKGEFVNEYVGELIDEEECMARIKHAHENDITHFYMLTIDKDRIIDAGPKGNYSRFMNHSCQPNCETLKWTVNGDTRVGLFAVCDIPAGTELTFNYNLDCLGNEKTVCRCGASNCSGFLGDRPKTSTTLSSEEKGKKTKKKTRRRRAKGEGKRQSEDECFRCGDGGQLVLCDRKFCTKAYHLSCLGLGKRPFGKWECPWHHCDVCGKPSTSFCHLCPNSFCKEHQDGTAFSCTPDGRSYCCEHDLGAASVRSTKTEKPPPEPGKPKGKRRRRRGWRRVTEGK

Ephrin type-A receptor 2 = Ephrin type-A receptor 2 (Homo sapiens, UniProt P29317); format: functional;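 also: EPHA2 tested as one member of a kinome-wide kinase panel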
[3] = biological target: Phosphorylase b kinase gamma catalytic chain, liver/testis isoform (Homo sapiens, UniProt P15735); format: functional;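 also: PHKG2 measured as one member of a kinome-wide kinase panel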
[4] = biological target: Casein kinase I isoform delta (Homo sapiens, UniProt P48730); format: functional;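 also: measured as one member (CSNK1D) of a kinome panel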
[5] = biological target: Serine/threonine-protein kinase PLK1 (Homo sapiens, UniProt P53350); format: functional;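 also: PLK1 measured as one member of a kinome-wide profiling panel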
[6] = biological target: Fibroblast growth factor receptor 3 (Homo sapiens, UniProt P22607); format: functional
[7] = biological target: STE20-like serine/threonine-protein kinase (Homo sapiens, UniProt Q9H2G2); format: functional
[8] = biological target: Serine/threonine-protein kinase pim-3 (Homo sapiens, UniProt Q86V86); format: functional;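 also: value obtained as one member of a broad kinase panel profiling effort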
[9] = biological target: Testis-specific serine/threonine-protein kinase 1 (Homo sapiens, UniProt Q9BXA7); format: functional
[10] = biological target: Serine/threonine-protein kinase pim-2 (Homo sapiens, UniProt Q9P1W9); format: functional;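 also: value comes from a broad kinase panel profiling study in which PIM2 was one of the panel members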
[11] = biological target: Megakaryocyte-associated tyrosine-protein kinase (Homo sapiens, UniProt P42679); format: functional;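 also: affinity measured as one member of a kinase panel (Navigating the Kinome) against MATK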
[12] = biological target: Receptor tyrosine-protein kinase erbB-4 (Homo sapiens, UniProt Q15303); format: functional;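 also: ERBB4 member of a kinome-wide kinase profiling panel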
[13] = biological target: Calcium/calmodulin-dependent protein kinase type II subunit gamma (Homo sapiens, UniProt Q13555); format: functional
[14] = biological target: Cyclin-dependent kinase 2 (Homo sapiens, UniProt P24941); format: functional;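 also: CDK2 measured as one member of a broad kinome profiling panel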

Sequence of Calcium/calmodulin-dependent protein kinase type II subunit gamma (Q13555 whole entry): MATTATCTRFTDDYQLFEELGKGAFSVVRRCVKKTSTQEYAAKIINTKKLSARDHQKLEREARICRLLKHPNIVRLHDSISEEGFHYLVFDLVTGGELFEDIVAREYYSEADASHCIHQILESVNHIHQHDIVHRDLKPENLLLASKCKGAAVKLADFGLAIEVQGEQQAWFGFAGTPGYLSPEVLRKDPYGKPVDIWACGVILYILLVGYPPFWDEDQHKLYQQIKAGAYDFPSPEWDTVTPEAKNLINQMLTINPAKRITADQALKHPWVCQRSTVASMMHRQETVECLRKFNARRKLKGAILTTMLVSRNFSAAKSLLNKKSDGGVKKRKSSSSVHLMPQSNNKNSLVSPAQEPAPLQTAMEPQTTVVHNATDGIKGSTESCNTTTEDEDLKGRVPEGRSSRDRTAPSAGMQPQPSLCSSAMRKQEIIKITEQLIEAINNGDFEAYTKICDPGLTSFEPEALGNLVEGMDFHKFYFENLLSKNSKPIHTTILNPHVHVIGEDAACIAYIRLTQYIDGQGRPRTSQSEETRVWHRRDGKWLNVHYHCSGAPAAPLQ
Sequence of Phosphorylase b kinase gamma catalytic chain, liver/testis isoform (P15735 whole entry, canonical isoform): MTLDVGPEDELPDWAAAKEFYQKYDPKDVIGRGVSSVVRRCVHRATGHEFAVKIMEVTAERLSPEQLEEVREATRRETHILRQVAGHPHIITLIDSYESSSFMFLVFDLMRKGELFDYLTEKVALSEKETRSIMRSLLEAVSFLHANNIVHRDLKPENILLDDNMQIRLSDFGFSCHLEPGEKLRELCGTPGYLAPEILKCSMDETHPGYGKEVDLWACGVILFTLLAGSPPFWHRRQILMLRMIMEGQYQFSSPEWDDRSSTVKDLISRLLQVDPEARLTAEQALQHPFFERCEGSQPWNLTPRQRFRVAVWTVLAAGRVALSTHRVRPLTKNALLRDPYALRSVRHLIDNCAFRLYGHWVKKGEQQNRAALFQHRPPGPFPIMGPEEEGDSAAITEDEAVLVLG
Sequence of Testis-specific serine/threonine-protein kinase 1 (Q9BXA7 whole entry): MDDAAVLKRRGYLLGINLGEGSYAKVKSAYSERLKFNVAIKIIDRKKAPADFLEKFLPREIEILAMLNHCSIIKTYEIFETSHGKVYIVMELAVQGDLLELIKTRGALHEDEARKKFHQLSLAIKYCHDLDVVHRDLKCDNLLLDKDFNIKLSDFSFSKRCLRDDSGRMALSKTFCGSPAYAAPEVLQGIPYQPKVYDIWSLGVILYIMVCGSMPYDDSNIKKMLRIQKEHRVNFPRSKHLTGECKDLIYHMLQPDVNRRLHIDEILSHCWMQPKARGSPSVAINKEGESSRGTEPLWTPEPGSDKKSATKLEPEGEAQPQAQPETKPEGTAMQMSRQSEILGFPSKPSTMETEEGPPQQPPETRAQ
Sequence of Serine/threonine-protein kinase pim-2 (Q9P1W9 whole entry): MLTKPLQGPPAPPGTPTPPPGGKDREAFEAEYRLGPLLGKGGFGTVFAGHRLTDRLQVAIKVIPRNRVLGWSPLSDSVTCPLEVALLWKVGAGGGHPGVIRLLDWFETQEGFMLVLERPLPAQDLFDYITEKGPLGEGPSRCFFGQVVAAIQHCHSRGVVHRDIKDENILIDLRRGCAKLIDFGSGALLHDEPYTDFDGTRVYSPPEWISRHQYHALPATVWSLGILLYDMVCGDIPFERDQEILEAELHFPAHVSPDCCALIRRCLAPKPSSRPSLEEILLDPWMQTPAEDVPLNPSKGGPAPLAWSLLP
Sequence of Serine/threonine-protein kinase PLK1 (P53350 whole entry): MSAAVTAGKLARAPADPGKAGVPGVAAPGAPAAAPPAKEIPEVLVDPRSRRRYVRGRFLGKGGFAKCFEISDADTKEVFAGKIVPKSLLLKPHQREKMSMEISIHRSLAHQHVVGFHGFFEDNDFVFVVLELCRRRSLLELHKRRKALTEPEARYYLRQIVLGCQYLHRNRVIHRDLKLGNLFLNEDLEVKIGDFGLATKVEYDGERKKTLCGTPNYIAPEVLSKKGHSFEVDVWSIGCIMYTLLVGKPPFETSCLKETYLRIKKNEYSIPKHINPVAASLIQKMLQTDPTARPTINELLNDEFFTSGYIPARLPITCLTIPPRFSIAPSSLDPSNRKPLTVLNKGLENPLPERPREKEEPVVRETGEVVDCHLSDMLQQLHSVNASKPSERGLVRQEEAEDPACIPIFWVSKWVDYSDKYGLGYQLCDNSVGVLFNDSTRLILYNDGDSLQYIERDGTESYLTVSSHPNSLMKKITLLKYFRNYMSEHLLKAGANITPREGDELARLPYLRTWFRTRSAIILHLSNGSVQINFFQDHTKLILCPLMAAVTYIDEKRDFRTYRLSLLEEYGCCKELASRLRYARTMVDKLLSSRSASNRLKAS
Sequence of Casein kinase I isoform delta (P48730 whole entry, canonical isoform): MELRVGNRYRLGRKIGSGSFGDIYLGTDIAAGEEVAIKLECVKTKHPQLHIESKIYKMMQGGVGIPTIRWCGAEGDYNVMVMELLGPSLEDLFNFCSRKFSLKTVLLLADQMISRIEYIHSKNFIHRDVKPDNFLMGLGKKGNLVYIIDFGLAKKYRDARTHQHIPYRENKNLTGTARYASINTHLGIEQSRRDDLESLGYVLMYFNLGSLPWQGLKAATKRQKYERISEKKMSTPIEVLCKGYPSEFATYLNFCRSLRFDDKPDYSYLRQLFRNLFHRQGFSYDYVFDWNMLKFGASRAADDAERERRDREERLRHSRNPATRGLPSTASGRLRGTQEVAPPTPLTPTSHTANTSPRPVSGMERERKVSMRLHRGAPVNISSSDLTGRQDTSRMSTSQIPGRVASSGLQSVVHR
Sequence of STE20-like serine/threonine-protein kinase (Q9H2G2 whole entry): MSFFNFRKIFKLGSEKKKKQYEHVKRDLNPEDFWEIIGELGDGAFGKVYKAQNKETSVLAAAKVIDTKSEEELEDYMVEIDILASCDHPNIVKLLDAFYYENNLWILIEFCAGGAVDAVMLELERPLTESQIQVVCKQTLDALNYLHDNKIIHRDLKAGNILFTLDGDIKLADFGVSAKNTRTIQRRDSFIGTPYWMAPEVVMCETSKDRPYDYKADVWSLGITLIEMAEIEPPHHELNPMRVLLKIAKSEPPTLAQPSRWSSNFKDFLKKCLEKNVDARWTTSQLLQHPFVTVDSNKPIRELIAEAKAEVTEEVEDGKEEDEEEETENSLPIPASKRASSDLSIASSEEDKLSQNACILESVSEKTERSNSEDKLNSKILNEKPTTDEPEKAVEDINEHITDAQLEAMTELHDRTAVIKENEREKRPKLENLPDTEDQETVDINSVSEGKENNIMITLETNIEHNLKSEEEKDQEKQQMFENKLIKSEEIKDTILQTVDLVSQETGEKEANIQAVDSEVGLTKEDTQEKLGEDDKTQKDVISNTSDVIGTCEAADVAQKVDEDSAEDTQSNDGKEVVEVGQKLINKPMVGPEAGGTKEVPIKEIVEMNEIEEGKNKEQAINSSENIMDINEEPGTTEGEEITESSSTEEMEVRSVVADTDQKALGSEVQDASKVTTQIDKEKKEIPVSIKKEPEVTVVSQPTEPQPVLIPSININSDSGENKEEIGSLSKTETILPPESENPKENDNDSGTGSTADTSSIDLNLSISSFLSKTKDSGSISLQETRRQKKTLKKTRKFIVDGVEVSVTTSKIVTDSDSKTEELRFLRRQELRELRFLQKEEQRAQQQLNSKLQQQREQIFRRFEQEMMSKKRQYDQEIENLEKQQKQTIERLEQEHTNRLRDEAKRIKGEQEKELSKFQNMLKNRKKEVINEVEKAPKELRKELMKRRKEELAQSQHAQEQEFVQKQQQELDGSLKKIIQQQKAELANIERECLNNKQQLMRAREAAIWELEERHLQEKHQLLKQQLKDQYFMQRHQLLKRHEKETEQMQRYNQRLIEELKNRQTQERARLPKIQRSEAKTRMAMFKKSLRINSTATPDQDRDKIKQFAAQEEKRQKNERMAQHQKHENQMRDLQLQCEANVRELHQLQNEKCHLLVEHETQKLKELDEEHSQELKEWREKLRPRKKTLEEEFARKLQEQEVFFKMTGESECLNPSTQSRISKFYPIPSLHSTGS
Sequence of Megakaryocyte-associated tyrosine-protein kinase (P42679 whole entry): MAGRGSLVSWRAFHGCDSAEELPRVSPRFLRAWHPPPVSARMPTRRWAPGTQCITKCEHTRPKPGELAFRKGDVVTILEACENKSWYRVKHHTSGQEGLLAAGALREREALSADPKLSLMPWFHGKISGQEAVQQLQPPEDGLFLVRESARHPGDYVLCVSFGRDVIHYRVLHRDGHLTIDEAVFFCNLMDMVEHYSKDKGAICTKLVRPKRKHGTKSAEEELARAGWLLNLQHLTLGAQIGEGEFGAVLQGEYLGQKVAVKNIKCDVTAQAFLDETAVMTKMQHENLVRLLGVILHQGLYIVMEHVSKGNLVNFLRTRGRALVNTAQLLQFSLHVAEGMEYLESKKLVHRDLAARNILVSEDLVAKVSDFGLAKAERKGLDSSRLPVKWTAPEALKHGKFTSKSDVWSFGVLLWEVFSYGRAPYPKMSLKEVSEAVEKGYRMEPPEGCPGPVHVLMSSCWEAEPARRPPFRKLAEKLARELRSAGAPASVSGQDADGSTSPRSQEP

- Ki [1]: > 2510 nM (inactive)
SMILES: COc1cccc(CNC(=O)c2cnc(-c3ccncc3)nc2)c1

- AC50 (Caspase-9): 27200 nM (active)
- IC50 (Caspase-3): 8430 nM (active)
SMILES: O=C(COC(=O)c1ccc([N+](=O)[O-])s1)Nc1ccc(F)cc1

SMILES: CCN(CC)CCCC(C)n1c2nc(=O)[nH]c(=O)c-2nc2cc(Cl)ccc21 (stereo unspecified)
- AC50 [2]: 1180 nM (active)

- Ki (Ephrin type-A receptor 2): > 3160 nM (inactive)
- Ki [3]: 200 nM (active)
- pKi [3]: 6.7
- Ki [4]: 20 nM (active)
- pKi [4]: 7.7
- Ki [5]: 251 nM (active)
- pKi [5]: 6.6
- Ki [6]: > 2000 nM (inactive)
- Ki [7]: 501 nM (active)
- pKi [7]: 6.3
- Ki [8]: 3160 nM (active)
- pKi [8]: 5.5
- Ki [9]: 126 nM (active)
- pKi [9]: 6.9
- Ki [10]: 398 nM (active)
- pKi [10]: 6.4
- Ki [11]: > 2000 nM (inactive)
- Ki [12]: > 3980 nM (inactive)
- Ki [13]: 31.6 nM (active)
- pKi [13]: 7.5
- Ki [14]: 12.6 nM (active)
- pKi [14]: 7.9
SMILES: OC1CCC(Nc2nc(Cl)cc(-c3c[nH]c4ncccc34)n2)CC1 (stereo unspecified)
